Where a name gives a salt, the structure may show the parent alone. Read-outs that look alike come from different tables or passages of the source.
How the values were obtained:
[1] = tested on: coronary insufficiency induced with glanduitrine in male rats (CFY strain); test: Anti-anginose activity by the method of Nieschulz, coronary insufficiency induced with glanduitrine; assay type: in vivo; settings: for Relative efficiency (relative anti-anginose activity): inhibition caused by Prenilamine=1; for Anti-anginose effect (inhibition %): rats, test dose 10.0 mg./kg. (compound 1), 2.0 mg./kg. (2, 3, Prenilamine), 4.0 mg./kg. (5, Lidocaine)
Method: Anti-anginose activity of the compounds according to the invention was tested on male rats from the CFY strain by the method of Nieschulz (Nieschulz, E. et al., Arzneimittelforschung, 5, 680/1955/). The rats weighed about 180 to 220 g. each and were narcotized prior to treatment. Electrocardiograms were registered by means of a NEK-2 ECG-instrument using a standard II output. The coronary insufficiency was induced with a 4 IE/kg. i.v. dose of glanduitrine. Prenilamine was used as a reference compound.
The acute intravenous toxicity was determined on rats of both sexes, using five animals for each doses. The relative anti-anginose activity was calculated on the basis of the following equation: [formula] Test results are shown in Table 3 below (inhibition caused by Prenilamine=1).

N. ischiadicus of rats = test: Local anaesthetic activity by the method of Truant and d'Amato; assay type: in vivo; settings: for Local anaesthetic activity EC50: N. ischiadicus of rats, motor-paralysis; for Local anaesthetic activity, relative efficiency: related to Lidocaine (1.0)
Method: The local anaesthetic activity was tested by the method of Truant and d'Amato (Truant, A. P. and Wiedling, S., Acta Chirurg. Scand. 116, 351/1958) on the N. ischiadicus of rats. The number of the animals showing the signs of characteristic motor-paralysis was recorded. As a control compound Lidocaine was used. This test can be carried out with water-soluble substances only.

[2] = Acute oral toxicity on mice (CFLP strain), 96 h observation; settings: mouse, in vivo
Method: Toxicity (per os) has been determined on mice (CFLP strain) of both sexes weighing about 20 to 25 g. each, 10 mice were used for each doses and the time of observation was 96 hours.

in vivo = settings: rat, iv, read-out: LD50-value (acute intravenous toxicity)
Method: The acute intravenous toxicity was determined on rats of both sexes, using five animals for each doses. The relative anti-anginose activity was calculated on the basis of the following equation: [formula]

isolated rat ileums = test: Smooth muscle relaxing activity by the method of Brock et al. on isolated rat ileums; settings: for Smooth muscle relaxant activity EC50: isolated rat ileums; for Smooth muscle relaxant activity, relative efficiency: related to Papaverine (1.0)
Excerpt: For the determination of smooth muscle relaxing activity the method of Brock et al. (Brock, N, et al., Arch. Exper. Pathol. u. Pharmacol., 215, 492/1952/) was used on isolated rat ileums. Papaverine was used as reference compound. In Table 4 below the EC50 -values and the relative efficiencies calculated on the basis of the following equation are also listed: [formula]

For `CC(COc1ccccc1)N[C@@H](CO)[C@@H](O)c1ccccc1` (relative stereo) [Compound 2, Threo + allothreo-1-phenyl-2-phenoxy-isopropylamino-1,3-propanediol fumarate], the “Relative efficiency (relative anti-anginose activity)” value [1] was 1.3, the “Anti-anginose effect (inhibition %)” value [1] was 56% and the “Local anaesthetic activity EC50” value (N. ischiadicus of rats) was 0.12 µg/mL. For the same compound, the “Local anaesthetic activity, relative efficiency” value (N. ischiadicus of rats) was 1.58, the LD50 at 96 h [2] was 200 mg/kg and the LD50 (in vivo) was 11 mg/kg. The “Smooth muscle relaxant activity EC50” value (isolated rat ileums) was 17.57 µg/mL and the “Smooth muscle relaxant activity, relative efficiency” value (isolated rat ileums) was 0.50.
With `CC(COc1ccccc1)N[C@@H](CO)[C@@H](O)c1ccccc1` (single isomer, unassigned; (+)) [Compound 3, (+) (Threo + allothreo)-1-phenyl-2-phenoxy-isopropylamino-1,3-propanediol fumarate] the “Relative efficiency (relative anti-anginose activity)” value [1] was 3.0, the “Anti-anginose effect (inhibition %)” value [1] was 67% and the “Local anaesthetic activity EC50” value (N. ischiadicus of rats) was 0.20 µg/mL. For the same compound, the “Local anaesthetic activity, relative efficiency” value (N. ischiadicus of rats) was 0.95, the LD50 at 96 h [2] was 350 mg/kg and the LD50 (in vivo) was 21.5 mg/kg. For the same compound, the “Smooth muscle relaxant activity EC50” value (isolated rat ileums) was 8.50 µg/mL and the “Smooth muscle relaxant activity, relative efficiency” value (isolated rat ileums) was 1.03.
For `CC(COc1ccccc1)N[C@H](CO)[C@H](O)c1ccccc1` (single isomer, unassigned; (-)) [Compound 4, (-) (Threo + allothreo)-1-phenyl-2-phenoxy-isopropylamino-1,3-propanediol fumarate], the “Local anaesthetic activity EC50” value (N. ischiadicus of rats) was 0.28 µg/mL, the “Local anaesthetic activity, relative efficiency” value (N. ischiadicus of rats) was 0.68 and the LD50 at 96 h [2] was 275 mg/kg. For the same compound, the “Smooth muscle relaxant activity EC50” value (isolated rat ileums) was 10.78 µg/mL and the “Smooth muscle relaxant activity, relative efficiency” value (isolated rat ileums) was 0.80.
In the case of `CC(C)N[C@@H](CO)[C@@H](O)c1ccccc1` [Compound 1, L (+) threo-1-phenyl-2-isopropylamino-1,3-propanediol], the “Relative efficiency (relative anti-anginose activity)” value [1] is reported as 3.0, the “Anti-anginose effect (inhibition %)” value [1] is reported as 50% and the LD50 at 96 h [2] is reported as 710 mg/kg. For the same compound, the LD50 (in vivo) was 140 mg/kg.
In the case of `CC(COc1ccccc1)N[C@@H](CO)[C@H](O)c1ccccc1` (stereo partly drawn) [Compound 5, Erythro+alloerythro-1-phenyl-2-phenoxyisopropylamino-1,3-propanediol fumarate], the “Relative efficiency (relative anti-anginose activity)” value [1] is reported as 3.0, the “Anti-anginose effect (inhibition %)” value [1] is reported as 64% and the LD50 at 96 h [2] is reported as 2000 mg/kg. The LD50 (in vivo) was 45 mg/kg.
For `CCN(CC)CC(=O)Nc1c(C)cccc1C` [Lidocaine, reference compound], the “Anti-anginose effect (inhibition %)” value [1] was 39% and the “Local anaesthetic activity EC50” value (N. ischiadicus of rats) was 0.19 µg/mL.
With `COc1ccc(Cc2nccc3cc(OC)c(OC)cc23)cc1OC` [Papaverine, reference compound] the “Smooth muscle relaxant activity EC50” value (isolated rat ileums) was 8.78 µg/mL and the “Smooth muscle relaxant activity, relative efficiency” value (isolated rat ileums) was 1.0.
In the case of `CC(Cc1ccccc1)NCCC(c1ccccc1)c1ccccc1` (stereo not drawn) [Prenilamine, 3,3-diphenylpropyl-1-methylphenethylamine, reference compound], the “Relative efficiency (relative anti-anginose activity)” value [1] is reported as 1.0, the “Anti-anginose effect (inhibition %)” value [1] is reported as 41% and the LD50 (in vivo; rats, i.v.) is reported as 11.5 mg/kg.

Reference: patent US4259257A, “1-Phenyl-2-amino-1,3-propanediol-N-aryloxyalkyl derivatives” (Egyt Gyogyszervegyeszeti Gyar, priority 1977, dated 1981)
